In article PMC5539068, “Structural optimization and evaluation of novel 2-pyrrolidone-fused (2-oxoindolin-3-ylidene)methylpyrrole derivatives as potential VEGFR-2/PDGFRβ inhibitors” (Chemistry Central Journal, 2017):

How the values were obtained:
[1] = tested on: patients with advanced colorectal cancer; design: method as in earlier work; settings: Phase IIb, cited from earlier work
[2] = tested on: HCT116 cells; settings: VEGFR-1/2 inhibitor; cited from earlier work
[3] = tested on: HUVEC cells; experiment: In-vitro VEGF-induced Matrigel tube formation assay; type: cell-based, human; settings: for IC50: Homo sapiens, HUVEC, VEGF 10 ng/ml, Matrigel, 6 h, read-out: IC50 Area (in vitro tube formation)
Method: The in vitro tube formation assay was assessed using ibidi μ-Slides (15-well, ibidi GmbH, Martinsried, Germany) in accordance with manufacturer’s protocol. Briefly, growth factor reduced Matrigel (10 μl) (Sigma, St. Louis MO) was added to the inner well of ibidi μ-Slides, and incubated at 37 °C for 1 h. […] 10,000 HUVEC cells in 50 μl of above growth medium was added to Matrigel (Sigma, St. Louis MO, USA) coated ibidi μ-Slides. After 6 h of incubation at 37 °C, the supernatant was discarded, and 50 μl of serum-free medium with diluted calcein AM (6.25 μg/ml) was added to above ibidi μ-Slides. After incubation in the dark at room temperature for 30 min, the μ-Slides were washed with PBS (50 μl) and fluorescence pictures were taken at 485 nm with a Leica DM1000 LED microscope (Leica Microsystems, Wetzlar, Hessen, Germany).

[4] = Preliminary pharmacokinetic studies; settings: no data shown
[5] = tested on: 786-O cells; experiment: Cell proliferation assay (MTT), 786-O; settings: Homo sapiens, 786-0, 72 h, read-out: IC50 786-O
Method: (§1) Serial dilutions of indicated compounds were added and incubated for additional 72 h. At the end of the incubation, cell viability was determined by the 3-(4,5-dimethylthiazol-2-yl)-2,5-diphenyl tetrazolium bromide (MTT) assay. The MTT formazan crystals formed were dissolved in DMSO, and the absorbance at 570 nm was recorded using a microplate spectrophotometer (Thermo Fisher Scientific, Waltham, MA, USA) [46].

[6] = tested on: HCT116 cells; experiment: Cell proliferation assay (MTT), HCT116; settings: Homo sapiens, HCT-116, 72 h, read-out: IC50 HCT116
Method: as §1

[7] = tested on: NCI-H460 cells; experiment: Cell proliferation assay (MTT), NCI-H460; settings: Homo sapiens, NCI-H460, 72 h, read-out: IC50 NCI-H460
Method: as §1

[8] = biological target: PDGFRβ (Homo sapiens, UniProt P09619); experiment: In-vitro kinase assay (HotSpot, 33P), PDGFRβ
[9] = biological target: VEGFR-2 (Homo sapiens, UniProt P35968); experiment: In-vitro kinase assay (HotSpot, 33P), VEGFR-2; settings: for inhibition at 0.08 µM: read-out: % inhibition of VEGFR-2 at 80 nM
Method: Next, the VEGFR-2 phosphorylation inhibitory activities of the newly synthesized compounds were evaluated.
(§2) Briefly, specific kinase and substrate and required cofactors were prepared in reaction buffer. Test compounds were added to the reaction and after 20 min a mixture of ATP (Sigma, St. Louis MO, USA) and ^33P ATP (Perkin Elmer, Waltham MA, USA) was added to make a final concentration of 10.0 μM. Reactions were stood at room temperature for 120 min, and then the reactions were spotted onto a P81 ion exchange filter paper (Whatman Inc., Piscataway, NJ, USA). Unbound phosphate was removed by extensive washing of filters in 0.1% phosphoric acid. Kinase activity data was reported as the percent remaining kinase activity in test compounds compared to the solvent control dimethyl sulfoxide (DMSO).

[10] = tested on: HCT116 cells; experiment: Cell cycle analysis by image cytometry (DAPI); settings: 3.0 μM, 24 h; preliminary
Method: Cell cycle profiles of HCT116 cells were determined with an NC-3000 image cytometer (ChemoMetec, Allerod, Denmark) in accordance with manufacturer’s protocol. Briefly, cells were seeded at 200,000 cells/well on a 6-well plate for 24 h. […] After incubation for 24 h, 100,000 cells were harvested and centrifuged at 400 g at room temperature for 5 min, washed once with PBS (50 μM), and resuspended in lysis buffer (50 μl) (ChemoMetec, Allerod, Denmark) containing 10 μg/ml of 2-(4-amidinophenyl)-1H-indole-6-carboxamidine (DAPI, ChemoMetec, Allerod, Denmark). […] The cellular fluorescence was measured with an NC-3000 image cytometer using NC-SlideA8 (ChemoMetec, Allerod, Denmark). The NC-3000 software (ChemoMetec, Allerod, Denmark) was used for image acquisition, image analysis and quantification, and data visualization.

[11] = biological target: T1, Aurora A (Homo sapiens, UniProt O14965); experiment: In-vitro kinase assay (HotSpot, 33P), Aurora A; settings: ATP 10.0 μM; for inhibition at 1 µM: read-out: % inhibition of Aurora A at 1.0 μM, 1.0 μM compound
T1 sequence (O14965 1-403): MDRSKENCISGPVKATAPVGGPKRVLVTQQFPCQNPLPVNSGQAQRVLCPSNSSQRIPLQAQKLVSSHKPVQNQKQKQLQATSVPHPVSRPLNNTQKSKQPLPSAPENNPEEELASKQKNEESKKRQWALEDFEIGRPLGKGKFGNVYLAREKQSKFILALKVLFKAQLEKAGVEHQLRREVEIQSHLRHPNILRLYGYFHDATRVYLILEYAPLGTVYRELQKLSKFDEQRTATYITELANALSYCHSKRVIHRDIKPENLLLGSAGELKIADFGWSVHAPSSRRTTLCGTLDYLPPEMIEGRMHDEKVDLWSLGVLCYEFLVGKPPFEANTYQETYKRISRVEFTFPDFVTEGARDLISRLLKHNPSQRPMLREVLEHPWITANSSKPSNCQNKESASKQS
Method: as §2

[12] = tested on: Detroit 551 cells; experiment: Cell proliferation assay (MTT), normal fibroblast Detroit 551; settings: Homo sapiens, Detroit 551, 72 h, read-out: IC50 Detroit 551
Method: as §1

VEGFR-2, sequence (P35968 20-1356): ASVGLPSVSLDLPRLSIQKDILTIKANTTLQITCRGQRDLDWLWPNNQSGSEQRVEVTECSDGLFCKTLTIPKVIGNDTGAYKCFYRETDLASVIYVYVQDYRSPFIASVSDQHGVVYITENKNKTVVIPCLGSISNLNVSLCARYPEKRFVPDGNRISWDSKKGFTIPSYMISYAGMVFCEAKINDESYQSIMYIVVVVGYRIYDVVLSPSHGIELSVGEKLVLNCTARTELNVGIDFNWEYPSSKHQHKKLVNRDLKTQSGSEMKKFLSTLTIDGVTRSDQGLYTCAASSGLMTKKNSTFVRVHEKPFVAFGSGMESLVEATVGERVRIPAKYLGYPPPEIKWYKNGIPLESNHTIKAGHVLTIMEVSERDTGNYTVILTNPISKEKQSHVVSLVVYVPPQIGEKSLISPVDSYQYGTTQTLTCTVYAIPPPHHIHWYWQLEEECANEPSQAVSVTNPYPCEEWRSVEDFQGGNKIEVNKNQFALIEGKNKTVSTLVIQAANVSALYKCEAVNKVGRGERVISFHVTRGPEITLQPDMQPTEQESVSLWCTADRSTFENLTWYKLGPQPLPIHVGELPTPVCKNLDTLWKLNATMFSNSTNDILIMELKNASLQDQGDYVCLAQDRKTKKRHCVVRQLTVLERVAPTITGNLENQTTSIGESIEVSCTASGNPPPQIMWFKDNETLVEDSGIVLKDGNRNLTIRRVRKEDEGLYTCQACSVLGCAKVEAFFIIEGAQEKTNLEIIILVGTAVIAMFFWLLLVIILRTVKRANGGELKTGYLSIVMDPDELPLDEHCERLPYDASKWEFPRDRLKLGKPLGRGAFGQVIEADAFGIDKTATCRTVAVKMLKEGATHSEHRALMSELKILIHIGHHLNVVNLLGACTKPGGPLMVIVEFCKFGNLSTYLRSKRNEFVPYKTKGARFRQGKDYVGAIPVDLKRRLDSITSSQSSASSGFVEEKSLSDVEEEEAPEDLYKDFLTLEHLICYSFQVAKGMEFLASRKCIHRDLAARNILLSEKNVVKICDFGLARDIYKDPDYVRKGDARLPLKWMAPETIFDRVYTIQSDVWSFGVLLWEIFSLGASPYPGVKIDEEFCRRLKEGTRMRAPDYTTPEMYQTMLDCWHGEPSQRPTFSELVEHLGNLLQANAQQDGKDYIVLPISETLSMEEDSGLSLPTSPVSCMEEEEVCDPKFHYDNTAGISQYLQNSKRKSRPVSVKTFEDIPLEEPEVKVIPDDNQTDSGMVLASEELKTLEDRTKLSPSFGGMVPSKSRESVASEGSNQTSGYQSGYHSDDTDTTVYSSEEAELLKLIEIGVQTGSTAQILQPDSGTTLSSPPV
PDGFRβ, sequence (P09619 33-1106): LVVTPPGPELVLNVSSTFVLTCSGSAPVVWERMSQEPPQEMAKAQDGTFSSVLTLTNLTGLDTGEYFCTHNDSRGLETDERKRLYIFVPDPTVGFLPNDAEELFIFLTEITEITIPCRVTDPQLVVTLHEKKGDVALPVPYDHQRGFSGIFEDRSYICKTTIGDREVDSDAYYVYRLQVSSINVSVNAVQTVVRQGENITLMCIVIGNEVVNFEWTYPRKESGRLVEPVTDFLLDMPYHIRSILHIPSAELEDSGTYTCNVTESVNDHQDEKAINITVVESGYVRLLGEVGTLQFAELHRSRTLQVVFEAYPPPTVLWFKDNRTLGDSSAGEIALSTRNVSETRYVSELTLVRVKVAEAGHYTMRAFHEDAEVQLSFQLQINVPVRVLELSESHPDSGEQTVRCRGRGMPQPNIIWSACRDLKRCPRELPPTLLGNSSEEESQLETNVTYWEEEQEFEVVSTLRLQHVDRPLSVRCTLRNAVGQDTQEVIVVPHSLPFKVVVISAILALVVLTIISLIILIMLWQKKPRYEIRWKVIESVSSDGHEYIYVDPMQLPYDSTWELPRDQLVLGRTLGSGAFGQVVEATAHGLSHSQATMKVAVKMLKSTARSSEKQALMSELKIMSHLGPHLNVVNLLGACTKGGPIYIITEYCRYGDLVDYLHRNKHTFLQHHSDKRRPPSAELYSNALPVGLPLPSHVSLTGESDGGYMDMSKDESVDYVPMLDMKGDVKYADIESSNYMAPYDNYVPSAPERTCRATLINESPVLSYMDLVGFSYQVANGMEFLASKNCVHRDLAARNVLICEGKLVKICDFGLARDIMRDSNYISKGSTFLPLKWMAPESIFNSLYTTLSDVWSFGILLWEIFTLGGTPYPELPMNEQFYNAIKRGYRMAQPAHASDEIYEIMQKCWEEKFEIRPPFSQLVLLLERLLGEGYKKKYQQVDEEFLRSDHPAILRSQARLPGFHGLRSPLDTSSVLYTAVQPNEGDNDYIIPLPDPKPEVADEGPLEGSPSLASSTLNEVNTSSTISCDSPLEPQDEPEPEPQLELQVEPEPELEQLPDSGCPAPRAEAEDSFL

For `CCN(CC)CCN1CCc2[nH]c(/C=C3\C(=O)Nc4ccc(F)cc43)c(C)c2C1=O` [famitinib], the “progression free survival (PFS)” value ([1]; compared to placebo) is listed as “significantly improved progression free survival (PFS)” and the toxicity [1] is listed as “manageable”.

For `O=C(Nc1cccc(C(F)(F)F)c1)c1ccccc1NCc1ccncc1` [AAL993], the “proliferation of HCT116 cells” value [2] is listed as “significantly decreases proliferation”.

In the case of `CCN(CC)CCN1Cc2[nH]c(/C=C3\C(=O)Nc4ccc(S)cc43)c(C)c2C1=O` [Compound 15, (Z)-3-((5-(2-(diethylamino)ethyl)-3-methyl-4-oxo-1,4,5,6-tetrahydropyrrolo[3,4-b]pyrrol-2-yl)methylene)-5-mercaptoindolin-2-one], the IC50 [3] is reported as 530 ± 110 nM, the “preliminary results in pharmacokinetic studies” value [4] is reported as “satisfactory” and the melting point is reported as 257 to 260 °C. The IC50 [5] was > 10000 nM, the IC50 [6] was 2340 ± 200 nM and the IC50 [7] was > 10000 nM. For the same compound, the IC50 [8] was 12.1 nM, the IC50 [9] was 14.6 nM and the inhibition at 0.08 µM [9] was 57%. For the same compound, the “cell cycle profile effect” value [10] was “increase in tetraploid cells”, the “% inhibition of Aurora A at 1.0 μM” value ([11]; 1.0 μM compound) was 96.4% and the inhibition at 1 µM [11] was 93.6%. The IC50 [12] was > 10000 nM.

With `CCN(CC)CCN1Cc2[nH]c(/C=C3\C(=O)Nc4ccc(O)cc43)c(C)c2C1=O` [Compound 14, (Z)-3-((5-(2-(diethylamino)ethyl)-3-methyl-4-oxo-1,4,5,6-tetrahydropyrrolo[3,4-b]pyrrol-2-yl)methylene)-5-hydroxyindolin-2-one] the IC50 [3] was 620 ± 70 nM, the “potency in inhibiting in vitro tube formation relative to sunitinib in terms of IC50” value ([3]; versus sunitinib) was “roughly 2.5 fold” and the “preliminary results in pharmacokinetic studies” value [4] was “satisfactory”. The melting point was 240 to 242 °C, the IC50 [5] was > 10000 nM and the IC50 [6] was 2830 ± 400 nM. The IC50 [7] was > 10000 nM, the IC50 [8] was 28.5 nM and the IC50 [9] was 25.9 nM. For the same compound, the inhibition at 0.08 µM [9] was 58%, the “cell cycle profile effect” value [10] was “G0/G1 cell cycle arrest” and the inhibition at 1 µM [11] was 93.6%. For the same compound, the IC50 [12] was > 10000 nM.
